Entries after “also recorded” stand apart in the source; their conditions may differ.
System: Sprague-Dawley rats
Experiment: Chronic administration for 3 weeks, glucose tolerance test (OGTT) in rats
Type: in vivo
Conditions: rat, vs solvent control, listed as leonurine crystal form A
Experimental: […] male Sprague-Dawley rats weighed 180 to 220 g were randomly divided into 4 groups, and with vehicle or three different dose of leonurine crystal form A treatment respectively: control group are treated with equal volume of DMSO, and treatment groups are treated with 30 mg/kg per day, 60 mg/kg per day, or 120 mg/kg per day of leonurine crystal form A. Leonurine crystal form A was dissolved in DMSO at concentrates of 30 mg/ml, 60 mg/ml and 120 mg/ml, and the volume of vehicle administered intragastrically in each rat was 1 ml per kg of body weight. The rats were treated with leonurine crystal form A or DMSO once a day for 3 weeks. Oral glucose tolerance test (OGTT) was detected at third week, and the rats were fasted 12 h before OGTT experiment. OGTT experiment was performed 1 h after administered of drugs. Blood glucose and body weight were tested before OGTT. OGTT: Rats were given 25% glucose solution (2 g/kg of body weight, 8 ml/kg) by […], and blood glucose concentration was determined from the tail vein at 15, 30, 60 and 120 min. The drug was discontinued for one week after OGTT, and the body weight and fasting blood-glucose were detected at forth week.
The data were analyzed by SPSS statistical software (version 11.5), and results were expressed as the mean±standard error of the mean (mean±SEM). Multiple group comparisons were tested by one-way analysis of variance (ANOVA). P<0.05 was considered as statistically significant. […] At 15 min time point, the glucose tolerance curve was shifted down. […] Moreover, at 60 min time point, the glucose tolerance curve also was moved down at the dose of 30 mg/kg/d and 120 mg/kg/d.

`COc1cc(C(=O)OCCCCNC(=N)N)cc(OC)c1O` [crystal form A, 4-guanidino-1-butyl 4-hydroxy-3,5-dimethoxybenzoate] was tested, and the “glucose tolerance curve (blood glucose)” value (30 mg/kg/d for 3 weeks, 15 minute time point, 30 mg/kg/day) was “reduce the degree of elevation of blood glucose; also recorded: decrease the level of blood glucose”, the “glucose tolerance curve (blood glucose)” value (30 mg/kg/d for 3 weeks, 60 minute time point, 30 mg/kg/day) was “reduce the degree of elevation of blood glucose; also recorded: decrease the level of blood glucose” and the “glucose tolerance curve (blood glucose)” value (120 mg/kg/d for 3 weeks, 60 minute time point, 120 mg/kg/day) was “reduce the degree of elevation of blood glucose; also recorded: decrease the level of blood glucose”.

Reference: US11446270B2, “Leonurine crystal and use thereof in preparation of insulin sensitizer, hypoglycemic drug and lipid-lowering drug” (ZHUHAI HENGQIN NEW DISTRICT ZHONGZHU ZHENGTAI MEDICAL …, priority 2017, dated 2022)
